Where two headings read alike, the source gives them in different places.
How the values were obtained:
Type in all cases: cell-based, human
Nomo-1 = test: 3H thymidine proliferation assay, Nomo-1
In short: (§1)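 Tumour cells were plated at 1.0×10^4 per well and, after 3 h, treated with threefold serial dilutions of compound or conjugate. Total incubation was 72 h, with a 1.0 μCi ^3H-thymidine pulse over the last 24 h. Counts gave the 50% inhibition concentration (EC50).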

PC3 [1] = test: 3H thymidine proliferation assay, PC3
In short: as §1

SK-BR3 = test: ATP luminescence proliferation assay, SK-BR3
Description: (§2) This example generally describes the procedures used to assay the antiproliferative activity of compounds of this invention or their conjugates. Human tumor cell lines were obtained from the American Type Culture Collection (ATCC), P.O. Box 1549, Manassas, Va. 20108, USA, and cultured according to instruction from the ATCC. Cells were seeded at 1.0×10^3 or 1.0×10^4 cells/well in 96-well plates for 3 h for ATP assays or ^3H thymidine assays, respectively. 1:3 serial dilutions of free (unconjugated) compounds or their conjugates were added to the wells. Plates were allowed to incubate for 24 to 72 h. The ^3H thymidine plates were pulsed with 1.0 μCi of ^3H-thymidine per well for the last 24 hours of the total incubation period, harvested, and read on a Top Count Scintillation Counter (Packard Instruments, Meriden, Conn.). ATP levels in the ATP plates were measured using the […]-GLO® Luminescent Cell Viability kit following the manufacturer's manual and read on a GLOMAX® 20/20 luminometer (both from Promega, Madison, Wis., USA). The EC50 values—the concentration at which an agent inhibits or reduces cell proliferation by 50% —were determined using PRISM™ software, version 4.0 (GraphPad Software, La Jolla, Calif., USA).
(§3) Using the ^3H thymidine or the ATP luminescence assay, or both, the activities of compounds of this invention were assayed against the following cancer cell lines: HCT-15 (colorectal cancer, multi-drug resistant (MDR)); Hep3B (liver cancer); LNCaP (prostate cancer, androgen receptor positive (AR^+)); MDA-MB-231 (breast cancer, estrogen receptor, progesterone receptor, and Her2 negative (triple negative)); A2058 (melanoma); U-87 MG (glioblastoma); NCI-H460 (NSCLC); A549 (NSCLC); HPAC (pancreatic cancer, primary); PC3 (prostate cancer, AR); BT474 (breast cancer, Her2 highly positive (Her2hi)); SKOV3 (ovarian cancer, Her2hi); 786-O (renal cancer); UO-31 (renal cancer, MDR); NCI-H740 (SCLC); DMS53 (SCLC); SK-BR3 (breast cancer, Her2hi); ZR-75 (breast cancer, estrogen receptor positive); OVCAR3 (ovarian cancer); HL-60 (APL); OVCAR8/Adr (ovarian cancer, MDR); CEM-Cl (ALL); Nomo-1 (AML); RPMI-8226 (MM)); Raji (lymphoma); SW-480 (colorectal cancer, metastatic); SW-620 (colorectal cancer); and H226 (lung cancer). (Not all compounds were assayed against all cell lines.)
(§4) Table 3 provides the data for the ATP luminescence proliferation assays, with an incubation period of 48, 72, or 96 h, as noted.

A2058 = test: 3H thymidine proliferation assay, A2058; conditions: 3H thymidine method, 72 h incubation
In short: as §1

HL-60 = test: ATP luminescence proliferation assay, HL-60
In short: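 Read-out: luminescent ATP cell viability after 48, 72 or 96 h incubation, as noted, with 1:3 serial dilutions of unconjugated compounds or their conjugates. Plating was 1.0×10^3 cells/well, 3 h before dosing. EC50 = concentration giving 50% inhibition of proliferation.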

OVCAR8 = test: 3H thymidine proliferation assay, OVCAR8
In short: as §1

SW-480 = test: ATP luminescence proliferation assay, SW-480
Description: as §2, §3, §4

HPAC = test: ATP luminescence proliferation assay, HPAC
Description: as §2, §3, §4

PC3 [2] = test: ATP luminescence proliferation assay, PC3
Description: as §2, §3, §4

MDA-MB-231 = test: 3H thymidine proliferation assay, MDA-MB-231
In short: as §1

SKOV3 = test: ATP luminescence proliferation assay, SKOV3
Description: as §2, §3, §4

NCI-H460 = test: 3H thymidine proliferation assay, NCI-H460
In short: as §1

RPMI-8226 = test: 3H thymidine proliferation assay, RPMI-8226
In short: as §1

CEM-Cl = test: ATP luminescence proliferation assay, CEM-C1
Description: as §2, §3, §4

Hep3B = test: ATP luminescence proliferation assay, Hep3B
Description: as §2, §3, §4

Raji = test: ATP luminescence proliferation assay, Raji
Description: as §2, §3, §4

BT474 = test: 3H thymidine proliferation assay, BT474
In short: as §1

CEM-C1 = test: 3H thymidine proliferation assay, CEM-C1
In short: as §1

[3] = Homo sapiens, NOMO-1, read-out: EC50, Nomo-1, 3H thymidine method, 72 h incubation
[4] = Homo sapiens, PC-3, read-out: EC50, PC3, 3H thymidine method, 72 h incubation
[5] = Homo sapiens, SK-BR-3, 48 h, read-out: EC50 SK-BR3 (48 h), ATP luminescence, SK-BR3, 48 h incubation
[6] = Homo sapiens, HL-60, 48 h, read-out: EC50 HL-60 (48 h), ATP luminescence, HL-60, 48 h incubation
[7] = Homo sapiens, OVCAR-8, read-out: EC50, OVCAR8, 3H thymidine method, 72 h incubation
[8] = Homo sapiens, SW480, 96 h, read-out: EC50 SW480 (96 h), ATP luminescence, SW480, 96 h incubation
[9] = Homo sapiens, 72 h, read-out: EC50 HPAC (72 h), ATP luminescence, HPAC, 72 h incubation
[10] = Homo sapiens, PC-3, 48 h, read-out: EC50 PC3 (48 h), ATP luminescence, PC3, 48 h incubation
[11] = Homo sapiens, MDA-MB-231, read-out: EC50, MDA-MB-231, 3H thymidine method, 72 h incubation
[12] = Homo sapiens, SK-OV-3, 72 h, read-out: EC50 SKOV3 (72 h), ATP luminescence, SKOV3, 72 h incubation
[13] = Homo sapiens, NCI-H460, read-out: EC50, NCI-H460, 3H thymidine method, 72 h incubation
[14] = Homo sapiens, RPMI-8226, read-out: EC50, RPMI-8226, 3H thymidine method, 72 h incubation
[15] = Homo sapiens, CEM/C1, 72 h, read-out: EC50 CEM-C1 (72 h), ATP luminescence, CEM-C1, 72 h incubation
[16] = Homo sapiens, 48 h, read-out: EC50 Hep3B (48 h), ATP luminescence, Hep3B, 48 h incubation
[17] = Homo sapiens, 72 h, read-out: EC50 Raji (72 h), ATP luminescence, Raji, 72 h incubation
[18] = Homo sapiens, BT-474, read-out: EC50, BT474, 3H thymidine method, 72 h incubation
[19] = Homo sapiens, CEM/C1, read-out: EC50, CEM-C1, 3H thymidine method, 72 h incubation
[20] = 3H thymidine method, 72 h incubation, read-out: EC50, Nomo-1
[21] = 3H thymidine method, 72 h incubation, read-out: EC50, PC3
[22] = ATP luminescence, SK-BR3, 48 h incubation, read-out: EC50 SK-BR3 (48 h)
[23] = ATP luminescence, HL-60, 72 h incubation, read-out: EC50 HL-60 (72 h)
[24] = 3H thymidine method, 72 h incubation, read-out: EC50, OVCAR8
[25] = ATP luminescence, SW480, 96 h incubation, read-out: EC50 SW480 (96 h)
[26] = ATP luminescence, 72 h incubation, read-out: EC50 HPAC (72 h)
[27] = ATP luminescence, PC3, 48 h incubation, read-out: EC50 PC3 (48 h)
[28] = 3H thymidine method, 72 h incubation, read-out: EC50, MDA-MB-231
[29] = ATP luminescence, SKOV3, 72 h incubation, read-out: EC50 SKOV3 (72 h)
[30] = 3H thymidine method, 72 h incubation, read-out: EC50, NCI-H460
[31] = 3H thymidine method, 72 h incubation, read-out: EC50, RPMI-8226
[32] = ATP luminescence, 48 h incubation, read-out: EC50 Hep3B (48 h)
[33] = ATP luminescence, 72 h incubation, read-out: EC50 Raji (72 h)
[34] = 3H thymidine method, 72 h incubation, read-out: EC50, BT474
[35] = 3H thymidine method, 72 h incubation, read-out: EC50, CEM-C1

CC[C@H](C)[C@H](NC(=O)[C@H]1CCCCN1C)C(=O)N(C)[C@H](C[C@@H](OC(C)=O)c1nc(C(=O)N[C@@H](Cc2ccc(N)cc2)CC(C)C(=O)O)cs1)C(C)C (stereo partly drawn) [Compound 36]
EC50 (Nomo-1; [3]): 124 nM
EC50 (PC3 [1]; [4]): 66 nM
EC50 (SK-BR3; [5]): > 300 nM
EC50 (A2058; Homo sapiens, A2058): 60 nM
EC50 (HL-60; [6]): 114 nM
EC50 (OVCAR8; [7]): > 100 nM
EC50 (SW-480; [8]): 81 nM
EC50 (HPAC; [9]): 2.9 nM
EC50 (PC3 [2]; [10]): 78 nM
EC50 (MDA-MB-231; [11]): > 100 nM
EC50 (SKOV3; [12]): 45 nM
EC50 (NCI-H460; [13]): 52 nM
EC50 (RPMI-8226; [14]): 48 nM
EC50 (CEM-Cl; [15]): 40 nM
EC50 (Hep3B; [16]): 86 nM
EC50 (Raji; [17]): 24 nM
EC50 (BT474; [18]): > 100 nM
EC50 (CEM-C1; [19]): 44 nM

CC[C@H](C)[C@H](NC(=O)[C@H]1CCCCN1C)C(=O)N(COC)[C@H](C[C@@H](OC)c1nc(C(=O)N[C@@H](Cc2ccccc2)C(=O)OC)cs1)C(C)C [Compound 29c]
EC50 (Nomo-1; [20]): 0.43 nM
EC50 (PC3 [1]; [21]): 11 nM
EC50 (SK-BR3; [22]): 278 nM
EC50 (A2058): 5.6 nM
EC50 (HL-60; [23]): 8.6 nM
EC50 (OVCAR8; [24]): 1.4 nM
EC50 (SW-480; [25]): 41 nM
EC50 (HPAC; [26]): 4.6 nM
EC50 (PC3 [2]; [27]): 66 nM
EC50 (MDA-MB-231; [28]): 4.8 nM
EC50 (SKOV3; [29]): 17 nM
EC50 (NCI-H460; [30]): 15 nM
EC50 (RPMI-8226; [31]): 16 nM
EC50 (CEM-Cl; ATP luminescence, CEM-C1, 48 h incubation, read-out: EC50 CEM-C1 (48 h)): 20 nM
EC50 (Hep3B; [32]): 75 nM
EC50 (Raji; [33]): 36 nM
EC50 (BT474; [34]): 12 nM
EC50 (CEM-C1; [35]): 45 nM

CC[C@H](C)[C@H](NC(=O)[C@H]1CCCCN1C)C(=O)N(COC(=O)CC(C)C)[C@H](C[C@@H](O)c1nc(C(=O)N[C@@H](Cc2ccccc2)C(=O)OC)cs1)C(C)C [Compound 28]
EC50 (Nomo-1; [20]): 0.2 nM
EC50 (PC3 [1]; [21]): > 100 nM
EC50 (SK-BR3; [22]): 7.8 nM
EC50 (A2058): 0.96 nM
EC50 (HL-60; [23]): 2.9 nM
EC50 (OVCAR8; [24]): 27 nM
EC50 (SW-480; [25]): 36 nM
EC50 (HPAC; [26]): 5.9 nM
EC50 (PC3 [2]; [27]): 5.8 nM
EC50 (MDA-MB-231; [28]): > 100 nM
EC50 (SKOV3; [29]): 11 nM
EC50 (NCI-H460; [30]): > 100 nM
EC50 (RPMI-8226; [31]): 8.7 nM
EC50 (CEM-Cl; ATP luminescence, CEM-C1, 72 h incubation, read-out: EC50 CEM-C1 (72 h)): 11 nM
EC50 (Hep3B; [32]): 17 nM
EC50 (Raji; [33]): 15 nM
EC50 (BT474; [34]): > 100 nM
EC50 (CEM-C1; [35]): 10 nM

CC[C@H](C)[C@H](NC(=O)[C@H]1CCCCN1C)C(=O)N(C)[C@H](C[C@@H](OC)c1nc(C(=O)N[C@H](CC(=O)OC)Cc2ccccc2)cs1)C(C)C [Compound 25]
EC50 (Nomo-1; [3]): 116 nM
EC50 (PC3 [1]; [4]): 319 nM
EC50 (SK-BR3; [5]): > 3000 nM
EC50 (A2058; Homo sapiens, A2058): 409 nM
EC50 (HL-60; [6]): 224 nM
EC50 (OVCAR8; [7]): 946 nM
EC50 (SW-480; [8]): 261 nM
EC50 (HPAC; [9]): 97 nM
EC50 (PC3 [2]; [10]): 155 nM
EC50 (MDA-MB-231; [11]): 236 nM
EC50 (SKOV3; [12]): 109 nM
EC50 (NCI-H460; [13]): 306 nM
EC50 (RPMI-8226; [14]): 396 nM
EC50 (CEM-Cl; [15]): 176 nM
EC50 (Hep3B; [16]): 246 nM
EC50 (Raji; [17]): 209 nM
EC50 (BT474; [18]): 804 nM
EC50 (CEM-C1; [19]): 225 nM

Reference: patent US20130204033A1, “ANTIPROLIFERATIVE COMPOUNDS, CONJUGATES THEREOF, METHODS THEREFOR, AND USES THEREOF” (Medarex, Inc., priority 2009, published 2013)
